Source: patent US6368785B1 (Global Hemostasis Institute MGR AB, priority 1997, dated 2002)
Counter-ions that a name gives are not always drawn. Like-named read-outs stand apart in the source and are kept apart here. Values belong to the molecule of their own block, whether it stands above or below them.

How the values were obtained:
[1] = cited from earlier work
[2] = apparent dissociation constant of putative Ca*ligand complex from potentiometric Ca^2+ activity; format: physicochemical; conditions: 20 mM Hepes, pH 7.0 to 7.6, dilutions with 0.15 mM of NaCl, average of n determinations; for Kd: read-out: kd ± S.D.
Description: Bovine plasma deficient in vitamin K dependent coagulation factors and thromboplastin from rabbit brain were the corresponding components from PK-reagent GHI 129 detailed above. Ca^2+ activity and pH in plasma were determined potentiometrically with an ICA 2 (Radiometer, Copenhagen, Denmark) apparatus.
In order to identify compounds that could function as buffers for Ca^2+ at physiological levels, i.e. at about 1.3 mM of Ca^2+, water soluble compounds, either with reported dissociation constants in the range of 0.5 to 5 mM or otherwise appearing interesting, were experimentally investigated. Below, these compounds are referred to as Ca^2+ ligands or simply ligands. Experiments described below were performed to deduce the apparent dissociation constants under physiological like conditions and at ligand concentrations meaningful for Ca^2+ buffering.
Solution of 200 mM of ligand containing 20 mM of Hepes was adjusted to pH 7.4 and mixed with an equal volume of 100 mM of CaCl2 solution. These mixtures were diluted 1:2, 1:4, 1:8 and 1:16 with […]. […] From the experimentally determined Ca^2+ activity and the stoikiometric levels of ligand and Ca^2+, the apparent dissociation constant for a putative Ca*ligand complex was determined as the average of all available data.

[3] = test system: prothrombin complex (coagulation factors VII, X and II); assay: coagulation time in prothrombin complex (PK) system with added citrate or iso-citrate; format: biochemical
Description: Activated partial thromboplastin time (APTT), prothrombin time (PT), prothrombin complex, (PK), assay, factor VIII and fibrin D-dimer were determined in compliance with manufacturers recommendations using the following reagents; PTT Automate, Diagnostica Stago, Asnieres-sur-Seine, France; Thromborel® S, Behring Diagnostics GmbH, Marburg, Germany; PK-reagent GHI 129, Global Hemostasis Institute MGR, Linköping, Sweden; and Coamatic® Factor VIII, Chromogenix, Mölndal, Sweden. The tests were performed on an Automated Coagulation Laboratory instrument, ACL, model 810 (Instrumentation Laboratory, Milan, Italy).
Coagulation analysis of blood and blood plasma are performed in many different ways. Most such analysis have the following in common. […] This Ca^2+ buffer capacity was determined in a system composed of sample, bovine plasma deficient in vitamin K dependent coagulation factors and rabbit brain thromboplastin. […] For each level of addition, the calcium ion buffering capacity of the analytical system was determined. The buffer capacity was determined at Ca^2+ activity in the range of 1 to 4 mM.
The assay response of the system described in Example 5 is investigated. […] The coagulation time is recorded. And after compacting of the coagulum by centrifugation for 3 minutes at 10,000×g, the Ca2+ activity is determined. […]

[4] = addition of CaCl2 solution to anti-coagulant solutions to reach physiological Ca^2+; format: physicochemical; conditions: solutions of the Ca^2+ binding substance plus CaCl2
From the text: This gave rise to the idea that these substances could perform as anticoagulants also at near physiological levels of Ca^2+ activity. […] This was possible with iso-citrate but not with citrate. […] The following therefore only describes experiments with iso-citrate.

[5] = in 0.1 M KNO3, read-out: published estimate
[6] = prior art, at physiological conditions
[7] = in 0.1 M NaClO4, read-out: published estimate

- Kd [2]: 29 ± 12 mM
SMILES: O=C(O)CNCC(=O)O [iminodiacetate]
- Kd ([1]; in 1 M KNO3, read-out: published estimate): 8.1 mM

- kd ± S.D. [2]: oxalate (precipitated)
SMILES: O=C(O)C(=O)O [oxalate, oxalic acid]
- Kd [1, 5]: 5 mM
- apparent dissociation constant of Ca^2+ complexes [1, 6]: considerably tighter

- Kd [2]: 22 ± 53 mM
SMILES: O=C(O)CC(CC(=O)O)C(=O)O [tricarballylate, tricarballylic acid]

The next lines start with the molecule.

SMILES: Nc1nc(N)c2[nH]cnc2n1 [2,6-diaminopurine]
- Kd [1, 5]: 1.6 mM
- Kd [2]: 50 ± 24 mM

SMILES: O=C(O)CN(CCN(CC(=O)O)CC(=O)O)CC(=O)O [EDTA]
- apparent dissociation constant of Ca^2+ complexes [1, 6]: considerably tighter

SMILES: Nc1ncnc2nc[nH]c12 [adenine]
- Kd [1, 5]: 1.1 mM
- Kd [2]: 70 ± 40 mM

SMILES: O=C(O)CC(O)(CC(=O)O)C(=O)O [citrate, Tri-sodium citrate]
- inhibition of coagulation (coagulation time) in PK system ([3]; 5, 10 or 20 mM added, Ca^2+ activity 0.7 to 9 mM): inhibit coagulation at all Ca^2+ activity levels
- inhibitory effect on coagulation time per molar unit, citrate versus iso-citrate ([3]; Ca^2+ activity of 1.5, FIG. 8): about twice as inhibitory as iso-citrate per molar unit
- Kd ([1]; medium not given, read-out: published estimate): 0.58 mM
- Kd ([1]; prior art, at physiological conditions, read-out: apparent dissociation constant of Ca^2+ complexes): ~0.4 mM
- Kd [2]: 0.5 ± 0.05 mM
- making solutions with physiological levels of Ca^2+ by adding CaCl2 solution [4]: formed precipitates

SMILES: CC(C)(C(=O)O)C(=O)O [dimethylmalonate, dimethylmalonic acid]
- Kd [1, 7]: 30.2 mM

SMILES: CC(C(=O)O)C(=O)O [methylmalonate, methylmalonic acid]
- Kd [1, 7]: 22.4 mM
- Kd [2]: 22 ± 3 mM

SMILES: O=C(O)c1ccccc1C(=O)O [phthalate, phthalic acid]
- Kd ([1]; in 0.1 M KCl, read-out: published estimate): 3.9 mM
- Kd [2]: 26 ± 73 mM

SMILES: O=C(O)/C=C(\CC(=O)O)C(=O)O [trans-aconitate, trans-aconitic acid]
- Kd [2]: 29 ± 53 mM
